# Assay results published in patent US20050209336A1, “EP2 receptor agonists” (priority 2003, published 2005).
# Where two headings read alike, the source gives them in different places.
# Tests used:
# human EP2 receptor [1] = target: T1, human EP2 receptor (Homo sapiens, UniProt P43116); experiment: cAMP production in HEK cells stably expressing the human EP2 receptor; type: cell-based; conditions: 15 min stimulation, 4 experiments
# T1 construct: expressed in transfected cells; host or cells: HEK cells (HEK-EP2)
# Method: The following describes an in vitro assay to determine the effect of compounds on cyclase production, that is, to determine their functional efficacy at the EP2 receptor.
# HEK cells stably expressing the human EP2 receptor were used for these assays. HEK-EP2 cells were cultured in 96-well, poly-L-lysine coated plates at a density of 50,000 cells/well, and grown to confluence in humidified […] at 37° C. Culture medium was DMEM supplemented with 10% foetal bovine serum, 100 U/ml penicillin, […], 2.5 µg/ml fungizone, 2 mM glutamine, 250 µg/ml geneticin and 200 µg/ml zeocin.
# On reaching confluence, culture media was rinsed off using DMEM with no additions, before 175 µl assay buffer (DMEM containing 1 mM 3-isobutyl-1-methylxanthine and 3 µM indomethacin) was added to each well. This was allowed to incubate for 1 hr before the cells were stimulated with the test compounds (in triplicate) at final concentrations of 10^−9M to 10^−5M for 15 minutes. The assay was terminated by the addition of 25 µl 1M hydrochloric acid. Plates were then frozen for a minimum of 12 hours or until required for radioligand displacement assay.
# Plates were thawed quickly at 37° C., and neutralised with 25 µl 1M sodium hydroxide. 30 µl of supernatant was transferred to 96-well Millipore (MAFNOB) plates coated with 0.1% Polyethylenimine. These supernatants were diluted by addition of 90[…]1 cAMP assay buffer (50 mM Tris, 5 mM EDTA, pH 7.0). A cAMP standard curve (10^−11M to 10^−5M) was constructed. 15 µl of 3′:5′-cAMP-dependent protein kinase (final concentration 8 µg/well), and 15 µl [^3H]-cAMP (final concentration 2 nM/well) were added to each well.
# Plates were incubated on ice for 2 hours, before bound and free radiolabel were separated by vacuum filtration harvesting on the Millipore manifold, using ice cold water as the termination buffer. Filter plates were allowed to dry overnight, before addition of 50 µl Microscint. Radioactivity was determined using the Microbeta Trilux scintillation counter. cAMP accumulation was determined from the standard curve, and the values plotted as pmoles cAMP/well.
# human EP4 receptor = target: T2, human EP4 receptor (Homo sapiens, UniProt P35408); experiment: Radioligand ([3H]PGE2) competition displacement binding, human EP4 receptor membranes; conditions: [3H]PGE2 displacement, read-out: pKi EP4 (converted)
# T2 construct: expressed in transfected cells
# Method: (§1) Membranes were prepared from cells stably transfected with human EP receptor cDNA. In brief, cells were cultured to confluency, scraped from culture flasks, and centrifuged (800 g, 8 minutes, 4° C.). Cells were twice washed in ice cold homogenisation buffer containing 10 mMTris-HCl, 1 mM EDTA.2Na, 250 mM sucrose, 1 mM PMSF, 0.3 mM indomethacin, pH 7.4, homogenised and re-centrifuged as before. The supernatant was stored on ice and pellets re-homogenised and re-spun. Supernatants were pooled and centrifuged at 40000 g, 10 minutes, 4° C. Resultant membrane pellets were stored at −80° C. until use.
# (§2) For assay, membranes expressing human EP4, EP3, EP2 or EP1 receptors were incubated in Millipore (MHVBN45) plates containing assay buffer, radiolabelled [^3H]PGE2 and 0.1 to 10 000 nM concentrations of compounds. Incubations were performed at suitable temperatures and for suitable times to allow equilibrium to be reached. Non-specific binding was determined in the presence of 10 uM PGE2. Bound and free radiolabel was separated by vacuum manifold filtration using appropriate wash buffers, and bound radiolabel was determined by scintillation counting. Constituents of each of the buffers are included in table 4 below.
# (§3) The affinity or pKi of each compound for each receptor was calculated from the concentration causing 50% radioligand displacement (IC50) using the Cheng-Prusoff equation: [formula]
# (§4) This approach follows that set out in Kenakin, T. P., Pharmacologic analysis of drug receptor interaction. Raven Press, New York, 2nd edition.
# human EP1 receptor = target: T3, human EP1 receptor (Homo sapiens, UniProt P34995); experiment: Radioligand ([3H]PGE2) competition displacement binding, human EP1 receptor membranes; conditions: [3H]PGE2 displacement, read-out: pKi EP1 (converted)
# T3 construct: expressed in transfected cells
# T3 sequence (P34995 1-402): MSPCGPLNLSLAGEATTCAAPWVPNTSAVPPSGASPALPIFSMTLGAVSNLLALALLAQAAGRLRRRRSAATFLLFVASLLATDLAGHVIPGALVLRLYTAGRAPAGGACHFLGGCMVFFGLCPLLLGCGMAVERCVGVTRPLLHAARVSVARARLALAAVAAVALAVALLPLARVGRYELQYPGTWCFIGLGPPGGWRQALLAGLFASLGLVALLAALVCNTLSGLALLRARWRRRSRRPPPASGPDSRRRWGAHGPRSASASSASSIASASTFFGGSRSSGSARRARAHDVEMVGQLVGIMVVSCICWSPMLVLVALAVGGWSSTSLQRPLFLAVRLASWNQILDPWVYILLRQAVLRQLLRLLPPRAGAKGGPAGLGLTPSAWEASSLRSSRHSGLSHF
# Method: as §1, §2
# The affinity or pKi of each compound for each receptor was calculated from the concentration causing 50% radioligand displacement (IC50) using the Cheng-Prusoff equation: [formula] […]
# human EP2 receptor [2] = target: T1, human EP2 receptor; experiment: Radioligand ([3H]PGE2) competition displacement binding, human EP2 receptor membranes; conditions: for Ki: human EP2 membranes, [3H]PGE2 displacement, Cheng-Prusoff, mean of 4 experiments, read-out: pKi EP2 (converted)
# Method: as §1, §2, §3, §4
# [3] = test system: IL-2 production by OKT3 activated T cells; experiment: Lymphocyte assay: IL-2 production by anti-CD3 (OKT3) stimulated T cells; type: cell-based, human; conditions: Homo sapiens, T-cell, 24 h, inhibition of IL-2 production
# Description: Lymphocytes are mononuclear leukocytes, which participate in specific immune responses to foreign antigens and in the manifestation of auto-immune diseases. T lymphocytes produce IL-2, a key factor for lymphocyte activation and proliferation, in response to antigen stimulation via the CD3-T cell receptor complex and the pathway involved in this response is the NF-AT. […] A lymphocyte assay was designed to model this response and to determine the effect of test compound on IL-2 production by anti-CD3-stimulated T cells isolated from peripheral blood. This assay uses a sub-optimal dose of an anti-CD3 monoclonal antibody (OKT3, 25 ng/ml) immobilised to a 96-well plate to stimulate a T cell response. The level of IL-2 released into the cell culture supernatants was quantified using a standard sandwich ELISA. Similarly, other cytokines such as TNFα and IFN-γ can also be measured in the same assay.
# Human peripheral blood mononuclear cells from healthy volunteers were isolated from whole blood by Ficoll-Hypaque density centrifugation and adherence to plastic. The non-adherent lymphocyte fraction was used to set up the lymphocyte assay and the adherent monocytes were then recovered by scraping and subsequently used in the monocyte assay.
# Lymphocytes were then seeded to a 96-well plate pre-coated with anti-CD3 monoclonal antibody (OKT3) at 25 ng/ml and immediately, the test compounds (Peak 1, mixture 1 acid; Peak 1, mixture 2 acid; AH-13205 racemate; PGE2) in appropriate dilutions were added to corresponding wells according to the experimental design. The plate was incubated for 24 hours at 37° C. with 5% CO2 in air and supernatants were recovered for ELISA analysis at the end of incubation period. The levels of IFN-γ was assessed by using the ProteoPlex 16 well human cytokine array assay kit according to the manufacturer's instruction.
# [4] = log scale, read-out: Mean Log (EC50) (converted)
# [5] = mean of four donors (FIG. 9, table 7), read-out: Mean EC50
# [6] = log scale, mean of four donors (FIG. 9, table 7), read-out: Mean Log (EC50) (converted)
# T2 sequence (P35408 whole entry): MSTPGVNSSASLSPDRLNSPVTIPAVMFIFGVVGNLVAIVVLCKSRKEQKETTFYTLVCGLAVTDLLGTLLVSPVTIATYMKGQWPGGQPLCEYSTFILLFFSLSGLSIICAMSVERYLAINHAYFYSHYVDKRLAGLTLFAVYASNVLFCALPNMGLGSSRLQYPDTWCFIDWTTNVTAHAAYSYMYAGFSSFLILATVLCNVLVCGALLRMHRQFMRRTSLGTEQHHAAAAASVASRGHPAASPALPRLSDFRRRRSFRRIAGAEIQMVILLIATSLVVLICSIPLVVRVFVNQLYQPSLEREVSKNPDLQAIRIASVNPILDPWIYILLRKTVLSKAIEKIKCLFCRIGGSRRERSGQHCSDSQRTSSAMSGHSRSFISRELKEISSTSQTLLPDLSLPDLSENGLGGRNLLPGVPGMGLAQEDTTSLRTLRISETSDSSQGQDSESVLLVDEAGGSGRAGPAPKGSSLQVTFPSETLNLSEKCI
# T1 sequence (P43116 whole entry): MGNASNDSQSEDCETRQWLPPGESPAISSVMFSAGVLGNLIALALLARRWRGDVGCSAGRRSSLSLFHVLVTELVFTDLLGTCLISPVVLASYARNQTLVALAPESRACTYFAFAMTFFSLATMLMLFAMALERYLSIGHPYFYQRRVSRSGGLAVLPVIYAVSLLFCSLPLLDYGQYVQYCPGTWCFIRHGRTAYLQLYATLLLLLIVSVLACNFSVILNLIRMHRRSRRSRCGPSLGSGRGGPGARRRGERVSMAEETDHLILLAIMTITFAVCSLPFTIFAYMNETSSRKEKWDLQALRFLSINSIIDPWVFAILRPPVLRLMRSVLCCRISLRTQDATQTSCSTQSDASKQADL
EC50 (human EP2 receptor [1]; [4]) [nM],Ki (human EP4 receptor) [nM],Ki (human EP1 receptor) [nM],Ki (human EP2 receptor [2]) [nM],"EC50 [3, 5] [nM]","EC50 [3, 6] [nM]",EC50 (human EP2 receptor [1]; read-out: Mean EC50) [nM],"EC50 ([3]; mean of three to five donors (FIG. 10, table 8), read-out: Mean EC50) [nM]","EC50 ([3]; log scale, mean of three to five donors (FIG. 10, table 8), read-out: Mean Log (EC50) (converted)) [nM]",selectivity for EP2 over other EP receptors (from table 5) (human EP2 receptor [2]; comparison among the stereoisomers),Compound
32.4,25100,10000,398,2820,2820,,,,,"CCCCCC(O)c1ccc(C2CCC(=O)C2CCCCCCC(=O)O)cc1 (racemic) [AH13205, (±)-trans-2-[4-(1-hydroxyhexyl)phenyl]-5-oxo-cyclopentaneheptanoic acid, reference compound]"
9.77,10000,,79.4,986,986,10,1320,1320,,"CCCCC[C@H](O)c1ccc([C@H]2CCC(=O)[C@@H]2CCCCCCC(=O)O)cc1 (single isomer, unassigned) [Peak 1, Mixture 1 acid]"
,7940,,126,,,56,,,most selective,"CCCCC[C@@H](O)c1ccc([C@H]2CCC(=O)[C@@H]2CCCCCCC(=O)O)cc1 (single isomer, unassigned) [Peak 1, Mixture 2 acid]"
